This is an account of results in patent US20180110218A1, “Substrate for Controlling Flies and Other Insects, Method for Manufacturing Thereof and Use of Said Substrate as Animal Litter” (priority 2016, published 2018).

Entries after “also recorded” stand apart in the source; their conditions may differ.

Holding throughout (format): in vivo
The subject of assay [1] is Musca domestica larvae and pupae. In words: Test 5: mortality of M. domestica, wood shavings impregnated with cyromazine formulations on horse manure. On the procedure: The absorbent substrate impregnated were wood shavings of the “Great Northern” pine tree, which are the most commonly used for horse litters.
For the effectiveness studies, the formulations for impregnating the wood shavings were applied manually by means of a container with a spray gun. Several sprayings were carried out, turning the wood shavings halfway to ensure that they were homogeneously impregnated.
The organic matter used was rabbit excrement in the first two tests with pyriproxyfen, due to its increased availability and high infestation with fly larvae. For tests 3 and 4 with pyriproxyfen and the test carried out with cyromazine, horse excrement was used since it is the main object on which the product is applied. In both cases, manure with high levels of fly larvae infestation was selected in order to obtain a suitable number of larvae per test. […]
In the case of the test with cyromazine, after the 5 days of exposure the dead pupae and larvae were separated. Once the adults emerged, the dead larvae, the unviable pupae and the adults that emerged (healthy and malformed) were counted in order to calculate the mortality rate for each case. […]

For assay [2] the test system is unchanged. In words: Test 1: pupal mortality of M. domestica, wood shavings impregnated with pyriproxyfen/diflubenzuron formulations on rabbit manure.
Excerpt: (§1) The organic matter used was rabbit excrement in the first two tests with pyriproxyfen, due to its increased availability and high infestation with fly larvae. […] In both cases, manure with high levels of fly larvae infestation was selected in order to obtain a suitable number of larvae per test. […]
(§2) In the case of the tests of litters with pyriproxyfen, after 5 days of exposure (enough time for the larvae to progress to the pupal stage), the pupae were separated in plastic cups covered with a net, waiting for the adults to emerge. Once the adults emerged, the unviable pupae and the adults that emerged (healthy and malformed) were counted in order to calculate the mortality rate for each case. […]
For assay [3] the test system is unchanged. The assay is described as follows: Test 4: pupal mortality of M. domestica, wood shavings impregnated with low-concentration pyriproxyfen formulations on horse manure.
Excerpt: as §1, §2

Turning to `Nc1nc(N)nc(NC2CC2)n1` [cyromazine], the “effectiveness (in words)” value in assay [1] is “effective in low doses”. Turning to `O=C(NC(=O)c1c(F)cccc1F)Nc1ccc(Cl)cc1` [diflubenzuron], the “mortality results / effectiveness (in words)” value in assay [2] was “effective in low doses”. For the compound `CC(COc1ccc(Oc2ccccc2)cc1)Oc1ccccn1` (stereo not drawn) [pyriproxyfen], the “effectiveness as a pupicide (in words)” value in assay [3] is reported as “good effectiveness; also recorded: effective in low doses”.
